Measurements taken from patent US11154057B2, “Use of nootkatone to treat mosquito infestations” (EVOLVA SA, priority 2016, dated 2021).

Tests used:
Assay type in all cases: in vivo
3rd/4th instar larvae = experiment: Duration of protection from larvae, Method 1: daily addition of new larval cohorts to treated beakers (Example No. 4)
Procedure: Method 1: Clean, glass 600 mL beakers were set up as test containers (such that the surface area of water to be treated was 54 cm^2), and were treated with 1 mL of 3% nootkatone in ethanol (v/v), or 1 mL of ethanol alone, as in Example No. 1, to achieve a final concentration of 0.03% nootkatone (v/v). After 24 hours, 100% of larvae were dead in the treated beakers, but 100% were alive in the control beakers, as in Example No. 1. An additional cohort of 25 larvae was added to each treatment beaker in the smallest practical volume of additional water, estimated at 1 mL per beaker. After an additional 24 hours, total live and dead larvae were counted and recorded. Testing continued by addition of new larval cohorts (25 per beaker, per day) for additional 24 hour periods until either there were no available 3rd/4th instar larvae, or until the rate of larval killing decreased.
In two replicate experiments, larvae cohorts were added to test containers in the presence of 0.03% nootkatone, 1% ethanol, starting 24 to 72 hours after addition of nootkatone and ethanol to the test containers (see FIGS. 5 and 6). In the second experiment, additional additional larval replicates were added simultaneously to test containers in the presence of 0.01% nootkatone, 1% ethanol (see FIG. 6).
In a separate experiment with the same experimental set-up, test containers were inoculated with nootkatone in ethanol 48 hours prior to addition of larvae (see FIG. 7). In these experiments, 100% of larvae were killed within 24 hours up to a week after nootkatone treatment. One week after addition of nootkatone, larval mortality was still at 94%.

Aedes aegypti pupae = experiment: Efficacy against mosquito pupae (Example No. 6); conditions: for pupae died within 24 hours: 0.03% nootkatone/1% ethanol
Procedure: Eggs of Aedes aegypti were purchased from a commercial supplier. Eggs were hatched in sterile MilliQ water and fed with finely ground Tetramin® fish food until they developed into pupae.
Clean, glass 600 mL beakers were washed and thoroughly rinsed prior to use as test containers. On testing days, pupae were removed from dishes used to grow larvae. Replicates of 10 pupae each were randomly assigned to glass beakers in a volume of 100 mL of sterile MilliQ water, and a treatment of nootkatone (see “Treatments” below), or a control treatment of ethanol alone, was added. Three control replicates and 4 treated replicates were tested on one day, and on a second day, two control replicates and four treated replicates were tested. The beakers were then covered lightly with Kimwipes, secured by rubber bands to prevent escape of adults. The beakers were observed after 24 hours, and the numbers of live pupae, dead pupae, live adults, and dead adults were recorded.
An aliquot of 1 mL of a 3% solution (w/v) of nootkatone in 100% ethanol was added to treatment beakers to obtain a final concentration of 0.03% nootkatone/1% ethanol. Control beakers received 1 mL of 100% ethanol, to obtain a final concentration of 1% ethanol.

[1] = tested on: Adult Aedes aegypti mosquitoes; experiment: Prevention of adult mosquito egg laying on treated filter papers; fecundity and adult mortality (Example No. 8); conditions: for Adult mosquito mortality: Affected, mean / Adult mosquito mortality: Dead, mean / Adult mosquito mortality: Knockdown, mean: 1% NK treated filter paper, cage of 100 mosquitoes; for Percent fecundity reduction, average: filter paper treated with 1 mL, dried, versus untreated paper in the same cage of 100 blood fed mosquitoes, triplicate
Procedure: Adult Aedes aegypti mosquitoes from a laboratory were blood fed and mated. Testing was conducted 2 days after administration of the blood meal to ensure that females were ready to oviposit.
White filter paper was cut to fit Petri dishes 9 cm in diameter, and each paper was treated with 1 mL of ethanol, 1% nootkatone, Formulation ECS-F-#605, or Formulation ECS-F_#607 (see Table No. 5). The filter papers were allowed to dry completely, and two Petri dishes were added to each cage of 100 blood fed mosquitoes, one treated, and one untreated control. A few milliliters of water was added to each Petri dish to provide a suitable egg laying site. […] Each treatment was tested in triplicate.
Female mosquitoes lay a high density of eggs (black spots) on suitable egg laying substrates, such as white filter paper. It was anticipated that either adult females would be repelled from egg laying sites that were treated with nootkatone, or that they would attempt to land and be poisoned by contacting nootkatone on the water surface. The rate of egg laying on the treated surface and the control surface, the presence of any adults found dead on the surface, and the overall mortality rate on a daily basis were recorded, and the average and standard error were calculated versus the untreated controls. […] An unexpected result was that filter papers treated with ethanol alone had 24% more eggs laid than the average of the untreated filter papers in the same cages. […] Photographs of representative filter papers are shown in FIG. 15, 1% nootkatone treatment (left), ethanol-only control (right).

Aedes aegypti larvae [2] = experiment: Liquefied nootkatone dripped onto the water surface as larvicide (Example No. 9, Treatment 1); conditions: thirty one microliters liquefied nootkatone on 100 mL water; 25 larvae; 24 hours
Procedure: (§1) In this example, nootkatone-containing compositions were evaluated for their ability to act as a larvicide by coating a water surface. Mixed sex 3rd and 4th instar Aedes aegypti larvae (Yellow fever mosquito) were tested.
98% pure nootkatone crystals were held at 38° C. until they liquefied. Previous testing has shown that 1 mL of a 3% solution of nootkatone dissolved in ethanol, when added to 100 mL of water containing mosquito larvae, kills 100% of larvae in less than 24 hours. This experiment tested whether an equivalent amount of liquefied nootkatone alone is able to kill larvae. Thirty one microliters of liquified nootkatone crystals were dripped onto the surface of 100 mL of water in a 600 mL clean, glass beaker containing 25 mixed sex 3rd and 4th instar Aedes aegypti larvae.

Aedes aegypti larvae [3] = experiment: Nootkatone crystals dropped onto the water surface as larvicide (Example No. 9, Treatment 3); conditions: for Alive / Dead / KD: 30 mg NK crystals in 100 mL water
Procedure: as §1
Standard storage conditions for nootkatone crystals is 4° C., therefore, the ability of crystals to coat a water surface without first liquifying them was tested. 30 mg of 98% pure nootkatone crystals was weighed and gently dropped onto the surface of 100 mL of water in a 600 mL clean, glass beaker containing 10 mixed sex 3rd and 4th instar Aedes aegypti larvae (3 replicates). Three control replicates of 10 larvae each were placed in identical beakers of 100 mL of water, but without nootkatone. All beakers were provided with finely ground fish food, and they were maintained at room temperature (˜72° F.).

[4] = 30 mg nootkatone crystals, at 27 hours

## C=C(C)[C@@H]1CCC2=CC(=O)C[C@@H](C)[C@]2(C)C1 [Nootkatone, nootkatone]
3rd/4th instar larvae; 0.01% nootkatone (v/v), 72 hours after application, FIG. 6
  mortality rate: about 10%
3rd/4th instar larvae; 0.01% nootkatone (v/v), larvae added after application, through 48 hours, FIG. 6
  mortality: 100%
3rd/4th instar larvae; 0.03% nootkatone (v/v), after 24 hours, first cohort
  larvae dead: 100%
3rd/4th instar larvae; 0.03% nootkatone (v/v), larvae added 0, 24, 48, and 78 hours after application, FIG. 5
  mortality: 100%
3rd/4th instar larvae; 0.03% nootkatone (v/v), larvae added after application, through 48 hours, FIG. 6
  mortality: 100%
3rd/4th instar larvae; 0.03% nootkatone (v/v), through 72 hours after application, FIG. 6
  mortality: 100%
3rd/4th instar larvae; 0.03% nootkatone (v/v), through one week of treatment, FIG. 7
  mortality rates: greater than 90%
3rd/4th instar larvae; 0.03% nootkatone, containers inoculated 48 hours prior to larvae, up to a week after nootkatone treatment, FIG. 7
  larvae killed within 24 hours: 100%
3rd/4th instar larvae; 0.03% nootkatone, one week after addition of nootkatone, FIG. 7
  larval mortality: 94%
Aedes aegypti pupae; 0.03% nootkatone/1% ethanol in water, average of two test days, controls 3%, FIG. 12
  pupae died within 24 hours, average: 94%
Aedes aegypti pupae; one experiment
  pupae died within 24 hours: 93%
Aedes aegypti pupae; second day of testing
  pupae died within 24 hours: 95%
[1]; 1 day post-exposure
  Adult mosquito mortality: Affected, mean: 6.7 per cage
  Adult mosquito mortality: Dead, mean: 6.7 per cage
  Adult mosquito mortality: Knockdown, mean: 0.0 per cage
[1]; 2 days post-exposure
  Adult mosquito mortality: Affected, mean: 10.7 per cage
  Adult mosquito mortality: Dead, mean: 10.7 per cage
  Adult mosquito mortality: Knockdown, mean: 0.0 per cage
[1]; 1% nootkatone in ethanol, versus 700-1100 eggs per cage on untreated papers
  total eggs laid on treated papers in 3 cages: 2 eggs
[1]
  Percent fecundity reduction, average: 99%
[1]; listed as NK
  Percent fecundity reduction, average: 99.9%
Aedes aegypti larvae [2]
  kill rates for mosquito larvae compared with nootkatone dissolved in ethanol: not as high as previous testing
Aedes aegypti larvae [3]; 1 hr
  Alive: 100%
  Dead: 0%
  KD: 0%
Aedes aegypti larvae [3]; 27 hr
  Alive: 53%
  Dead: 7%
  KD: 40%
Aedes aegypti larvae [3]; 54 hr
  Alive: 3%
  Dead: 70%
  KD: 27%
Aedes aegypti larvae [3]; 77.5 hr
  Alive: 0%
  Dead: 97%
  KD: 3%
Aedes aegypti larvae [3]; 30 mg nootkatone crystals, after more than 3 days
  killing: below 100%
Aedes aegypti larvae [3]; [4]
  larvae alive (unaffected plus affected): 93%
  larvae that appeared to be unaffected: ~50%
